# Test results as given in PMC4273984 (ACS Chemical Biology, 2014).
# Tests used:
# BrdT = BrdT (Homo sapiens, UniProt Q58F21); assay: Protein-observed 19F NMR, 5FW-BrdT; assay type: binding; conditions: resonance perturbation in slow exchange
# Brd4 = conditions: BET bromodomain inhibition; cited from earlier work
# 5FW-Brd4(1) = 5FW-Brd4(1) (Homo sapiens, UniProt O60885); assay: Protein-observed 19F NMR; assay type: binding; conditions: W81 resonance perturbation
# 3FY-Brd4(1) = 3FY-Brd4(1) (Homo sapiens, UniProt O60885); assay: Protein-observed 19F NMR; assay type: binding
# Brd4(1) = Brd4(1) (Homo sapiens, UniProt O60885); conditions: fluorescence anisotropy or TR-FRET; cited from earlier work
structure (smiles),measurement,setting,value
CC[C@@H]1C(=O)N(C)c2cnc(Nc3ccc(C(=O)NC4CCN(C)CC4)cc3OC)nc2N1C1CCCC1 [BI2536],binding to BrdT by PrOF NMR,BrdT,bind to BrdT
CC(=O)Nc1ccc(O)cc1 [acetaminophen],Kd,5FW-Brd4(1),230 ± 30 µM
same,Kd,3FY-Brd4(1),290 ± 40 µM
same,affinity for Brd4(1),Brd4(1),too weak
